Experimental data taken from PubChem BioAssay (NCI).
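Tested at 5 concentrations; 48 h exposure; 96-well plates; endpoints linearly interpolated, else capped at highest concentration. TGI denotes the concentration required for complete inhibition of growth.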

Key:
Assay in all cases: DTP human tumour cell line panel, 48 h
UACC-257 melanoma = system: UACC-257 melanoma
U251 CNS = system: U251 CNS
SW-620 colon = system: SW-620 colon
SK-OV-3 ovarian = system: SK-OV-3 ovarian
EKVX NSCLC = system: EKVX NSCLC
SNB-75 CNS = system: SNB-75 CNS
SF-268 CNS = system: SF-268 CNS
HOP-62 NSCLC = system: HOP-62 NSCLC
UO-31 renal = system: UO-31 renal
HCT-116 colon = system: HCT-116 colon
CCRF-CEM leukemia = system: CCRF-CEM leukemia
SR leukemia = system: SR leukemia
COLO 205 colon = system: COLO 205 colon
NCI-H522 lung = system: NCI-H522 lung
HOP-92 NSCLC = system: HOP-92 NSCLC
SK-MEL-2 melanoma = system: SK-MEL-2 melanoma
UACC-62 melanoma = system: UACC-62 melanoma
NCI/ADR-RES ovarian = system: NCI/ADR-RES ovarian
RPMI-8226 leukemia = system: RPMI-8226 leukemia
T-47D breast = system: T-47D breast

Row | SMILES | TGI (UACC-257 melanoma) | TGI (U251 CNS) | TGI (SW-620 colon) | TGI (SK-OV-3 ovarian) | TGI (EKVX NSCLC) | TGI (SNB-75 CNS) | TGI (SF-268 CNS) | TGI (HOP-62 NSCLC) | TGI (UO-31 renal) | TGI (HCT-116 colon) | TGI (CCRF-CEM leukemia) | TGI (SR leukemia) | TGI (COLO 205 colon) | TGI (NCI-H522 lung) | TGI (HOP-92 NSCLC) | TGI (SK-MEL-2 melanoma) | TGI (UACC-62 melanoma) | TGI (NCI/ADR-RES ovarian) | TGI (RPMI-8226 leukemia) | TGI (T-47D breast)
1 | CN(C(=O)C12C3C4C1C1C4(C(=O)C45C6C7C4C4C5C6C74C)C3C12C)C(C)(C)C (configuration not stated) | > 100 µM | > 100 µM | > 100 µM | > 100 µM | > 100 µM | > 100 µM | > 100 µM | > 100 µM | > 100 µM | > 100 µM | > 100 µM | > 100 µM | > 100 µM | > 100 µM | > 100 µM | > 100 µM | > 100 µM | – | – | –
2 | O=C1C=C(Sc2ccccc2)c2nccc3c2c1nc1ccccc13 | 30.6 µM | 33.6 µM | 29.7 µM | > 100 µM | 41 µM | > 100 µM | 26.7 µM | 32.2 µM | 27.3 µM | 30.3 µM | 12.3 µM | 25.5 µM | 31.5 µM | 15.8 µM | 42.3 µM | 27.3 µM | 29.2 µM | > 100 µM | > 100 µM | –
3 | N#Cc1c(NN)nc(NN)c(C#N)c1-c1ccccc1 | > 100 µM | – | > 100 µM | > 100 µM | > 100 µM | > 100 µM | > 100 µM | > 100 µM | > 100 µM | > 100 µM | > 100 µM | – | > 100 µM | – | > 100 µM | > 100 µM | > 100 µM | – | > 100 µM | –
4 | N#Cc1c(Cl)cccc1Oc1ccc(S(=O)(=O)/N=C(\NN)Nc2ccc(Cl)cc2)cc1 | 72.3 µM | > 100 µM | > 100 µM | > 100 µM | 68.3 µM | 54.7 µM | 48.9 µM | 59.6 µM | 91.5 µM | 37.8 µM | – | – | 29.6 µM | – | 54 µM | 46.5 µM | 38.8 µM | > 100 µM | 59.3 µM | 48.1 µM
5 | NC(=S)N/N=C(\Cc1nc2ccc(Cl)cc2[nH]c1=O)C(=O)Nc1ccc(Cl)cc1 | > 100 µM | > 100 µM | > 100 µM | > 100 µM | > 100 µM | > 100 µM | > 100 µM | > 100 µM | > 100 µM | > 100 µM | > 100 µM | – | > 100 µM | > 100 µM | > 100 µM | > 100 µM | > 100 µM | > 100 µM | – | –
6 | CC(C)(C)c1cc(C(C)(C)C)c(SS(=O)(=O)O)c(O)c1O | > 100 µM | > 100 µM | > 100 µM | > 100 µM | > 100 µM | 99.1 µM | > 100 µM | > 100 µM | > 100 µM | > 100 µM | > 100 µM | – | > 100 µM | – | > 100 µM | 94.5 µM | 55.2 µM | > 100 µM | > 100 µM | > 100 µM
7 | COC(=O)N1CCc2c(nc(N(C)CCO)[nH]c2=O)C1 | > 100 µM | > 100 µM | > 100 µM | > 100 µM | > 100 µM | > 100 µM | > 100 µM | > 100 µM | > 100 µM | > 100 µM | > 100 µM | > 100 µM | > 100 µM | > 100 µM | > 100 µM | > 100 µM | > 100 µM | – | > 100 µM | –
8 | CCCCCC/C=C1\CCC(CN2CCCC2)C1=O (configuration not stated) | 32.7 µM | 30 µM | > 59.4 µM | 33 µM | 34.2 µM | 38.3 µM | 38.5 µM | 34.2 µM | 33 µM | 25 µM | 20.9 µM | > 22.4 µM | 36.3 µM | 3.29 µM | 32.4 µM | 30.5 µM | 35.9 µM | – | 5.56 µM | –
9 | CC(=O)NC(C)(C)C1CC=C(C)CC1 (configuration not stated) | > 100 µM | > 100 µM | > 100 µM | > 100 µM | > 100 µM | > 100 µM | > 100 µM | > 100 µM | > 100 µM | > 100 µM | > 100 µM | > 100 µM | > 100 µM | – | – | – | > 100 µM | > 100 µM | > 100 µM | –
10 | O=C1CCC(=O)N1Cc1ccccc1N=[N+]([O-])c1ccccc1CN1C(=O)CCC1=O | – | > 100 µM | > 100 µM | – | > 100 µM | 65.6 µM | > 100 µM | > 100 µM | > 100 µM | > 100 µM | > 100 µM | > 100 µM | > 100 µM | > 100 µM | – | > 100 µM | > 100 µM | – | > 100 µM | –
11 | Cc1ccc2c(=O)c3cccc(CC(=O)O)c3[nH]c2c1C | > 100 µM | > 100 µM | > 100 µM | > 100 µM | > 100 µM | – | 90.5 µM | > 100 µM | > 100 µM | > 100 µM | > 100 µM | > 100 µM | > 100 µM | > 100 µM | > 100 µM | – | > 100 µM | > 100 µM | > 100 µM | –
12 | O=c1cc2ccccc2nn1Cc1cccc(Cl)c1 | > 100 µM | > 100 µM | > 100 µM | > 100 µM | > 100 µM | > 100 µM | > 100 µM | > 100 µM | > 100 µM | > 100 µM | > 100 µM | – | > 100 µM | – | > 100 µM | > 100 µM | > 100 µM | – | > 100 µM | –
13 | Cn1nc2ccc3nccc(N4CCN(CCO)CC4)c3c2n1 | > 100 µM | > 100 µM | > 100 µM | > 100 µM | – | > 100 µM | > 100 µM | > 100 µM | > 100 µM | > 100 µM | > 100 µM | – | > 100 µM | > 100 µM | – | > 100 µM | > 100 µM | – | – | > 100 µM
14 | CCCCc1c2c(nc3c1CCCC3O)CCCC2 (configuration not stated) | > 100 µM | > 100 µM | > 100 µM | > 100 µM | > 100 µM | > 100 µM | > 100 µM | > 100 µM | > 100 µM | > 100 µM | > 100 µM | > 100 µM | > 100 µM | > 100 µM | > 100 µM | > 100 µM | > 100 µM | > 100 µM | > 100 µM | –
